From ChEMBL document CHEMBL1201862, “PubChem BioAssay data set” (2004)
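Five concentrations, 48 hours, 96-well plates. GI50 = concentration required for 50% inhibition of growth.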 Calls of active or inactive are those of the source. Cut-off read from the data, not from the text of the source: active = GI50 up to about 1.1 µM and inactive = higher. Residues, ends and D or L forms follow the SMILES beside them. *: point of attachment. Cbz = O=C(OCc1ccccc1)*; Boc = CC(C)(C)OC(=O)*; OSu = O=C1CCC(=O)N1O*; Bn = c1ccc(C*)cc1

Tests used:
Assay in all cases: NCI tumour cell line growth inhibition, 48 h
[1] = test system: ACHN
[2] = test system: BT-549
[3] = test system: CCRF-CEM
[4] = test system: COLO 205
[5] = test system: EKVX
[6] = test system: HOP-62
[7] = test system: KM12
[8] = test system: MDA-MB-231
[9] = test system: MDA-MB-435
[10] = test system: MOLT-4
[11] = test system: NCI-H460
[12] = test system: PC-3
[13] = test system: SF-539
[14] = test system: SK-OV-3
[15] = test system: SNB-19
[16] = test system: U-251
[17] = test system: UACC-62
[18] = test system: OVCAR-3
[19] = test system: SR
[20] = test system: T47D

| Compound | GI50 [1] | GI50 [2] | GI50 [3] | GI50 [4] | GI50 [5] | GI50 [6] | GI50 [7] | GI50 [8] | GI50 [9] | GI50 [10] | GI50 [11] | GI50 [12] | GI50 [13] | GI50 [14] | GI50 [15] | GI50 [16] | GI50 [17] | GI50 [18] | GI50 [19] | GI50 [20] |
| --- | --- | --- | --- | --- | --- | --- | --- | --- | --- | --- | --- | --- | --- | --- | --- | --- | --- | --- | --- | --- |
| Cc1ccc(-c2c(C#N)c(-c3ccc(Cl)cc3)c(C#N)c(=O)n2NS(=O)(=O)c2ccc(C)cc2)cc1 | 36.2 µM (inactive) | 23.5 µM (inactive) | 20.7 µM (inactive) | 42.1 µM (inactive) | 47.6 µM (inactive) | 19.5 µM (inactive) | 22.5 µM (inactive) | 38.5 µM (inactive) | 30.6 µM (inactive) | 16.9 µM (inactive) | 27.4 µM (inactive) | 17.4 µM (inactive) | 18.7 µM (inactive) | 22.1 µM (inactive) | 36.3 µM (inactive) | 36.2 µM (inactive) | 18 µM (inactive) | – | – | – |
| C[C@H](CSC(=O)c1ccccc1)C(=O)N1c2ccccc2C[C@H]1C(=O)O | > 100 µM (inactive) | > 100 µM (inactive) | 32.1 µM (inactive) | 63 µM (inactive) | > 100 µM (inactive) | > 100 µM (inactive) | > 10 µM (inactive) | > 100 µM (inactive) | – | 75.7 µM (inactive) | > 10 µM (inactive) | > 100 µM (inactive) | > 100 µM (inactive) | > 100 µM (inactive) | > 100 µM (inactive) | > 100 µM (inactive) | > 100 µM (inactive) | > 100 µM (inactive) | 61.1 µM (inactive) | > 100 µM (inactive) |
| CC(O)CNC(=O)Nc1c(C(F)(F)F)cc(-c2ccccc2)[nH]c1=O (stereo not given) | > 100 µM (inactive) | > 100 µM (inactive) | 13.8 µM (inactive) | > 100 µM (inactive) | > 100 µM (inactive) | > 100 µM (inactive) | > 100 µM (inactive) | > 100 µM (inactive) | > 100 µM (inactive) | > 100 µM (inactive) | > 100 µM (inactive) | > 100 µM (inactive) | – | > 100 µM (inactive) | > 100 µM (inactive) | > 100 µM (inactive) | > 100 µM (inactive) | > 100 µM (inactive) | – | > 100 µM (inactive) |
| Cc1csc(NNC(N)=O)n1 | > 100 µM (inactive) | > 100 µM (inactive) | > 100 µM (inactive) | > 100 µM (inactive) | > 100 µM (inactive) | > 100 µM (inactive) | > 100 µM (inactive) | > 100 µM (inactive) | > 100 µM (inactive) | > 100 µM (inactive) | > 100 µM (inactive) | > 100 µM (inactive) | > 100 µM (inactive) | > 100 µM (inactive) | > 100 µM (inactive) | > 100 µM (inactive) | > 100 µM (inactive) | > 100 µM (inactive) | 25.6 µM (inactive) | – |
| C[N+](C)(C)CC(=O)N/N=C(/CC(=O)CC(C1=C(O)c2ccccc2OC1)c1ccccc1)C(=O)Nc1cccc(Cl)c1 (stereo not given) | > 100 µM (inactive) | > 100 µM (inactive) | > 100 µM (inactive) | > 100 µM (inactive) | > 100 µM (inactive) | > 100 µM (inactive) | > 100 µM (inactive) | > 100 µM (inactive) | – | > 100 µM (inactive) | > 10 µM (inactive) | > 100 µM (inactive) | > 100 µM (inactive) | > 100 µM (inactive) | – | > 100 µM (inactive) | > 100 µM (inactive) | > 100 µM (inactive) | > 100 µM (inactive) | > 100 µM (inactive) |
| NN/C(=N\S(=O)(=O)c1cc(S(=O)(=O)c2ccccc2)cs1)Nc1ccc(Cl)cc1 | 27.5 µM (inactive) | 31.2 µM (inactive) | 13.5 µM (inactive) | 19.4 µM (inactive) | 13.6 µM (inactive) | 38.4 µM (inactive) | 26.1 µM (inactive) | 27.4 µM (inactive) | – | 18.6 µM (inactive) | 22.5 µM (inactive) | 23.3 µM (inactive) | 42.7 µM (inactive) | 43.7 µM (inactive) | 42.1 µM (inactive) | 23.5 µM (inactive) | 17.5 µM (inactive) | 20.3 µM (inactive) | 9.71 µM (inactive) | 13.8 µM (inactive) |
| CC1(C)CC(C)(C)C1=NNC(N)=O | > 100 µM (inactive) | – | > 100 µM (inactive) | > 100 µM (inactive) | > 100 µM (inactive) | > 100 µM (inactive) | > 100 µM (inactive) | > 100 µM (inactive) | > 100 µM (inactive) | > 100 µM (inactive) | > 100 µM (inactive) | > 100 µM (inactive) | > 100 µM (inactive) | > 100 µM (inactive) | > 100 µM (inactive) | > 100 µM (inactive) | > 100 µM (inactive) | > 100 µM (inactive) | > 100 µM (inactive) | > 100 µM (inactive) |
| CC1=CC(=O)/C(=C/NC(=S)Nc2ccc(S(N)(=O)=O)cc2)C(=O)O1 | > 100 µM (inactive) | > 100 µM (inactive) | – | > 100 µM (inactive) | > 100 µM (inactive) | > 100 µM (inactive) | > 100 µM (inactive) | > 100 µM (inactive) | > 100 µM (inactive) | > 100 µM (inactive) | > 100 µM (inactive) | – | > 100 µM (inactive) | > 100 µM (inactive) | > 100 µM (inactive) | > 100 µM (inactive) | > 100 µM (inactive) | > 100 µM (inactive) | – | > 100 µM (inactive) |
| N#Cc1c(N2CCOCC2)ncn(-c2ccccc2)c1=O | > 100 µM (inactive) | > 100 µM (inactive) | > 100 µM (inactive) | > 100 µM (inactive) | > 100 µM (inactive) | > 100 µM (inactive) | > 100 µM (inactive) | – | > 100 µM (inactive) | > 100 µM (inactive) | > 100 µM (inactive) | > 100 µM (inactive) | > 100 µM (inactive) | > 100 µM (inactive) | > 100 µM (inactive) | > 100 µM (inactive) | > 100 µM (inactive) | > 100 µM (inactive) | > 100 µM (inactive) | > 100 µM (inactive) |
| O=[N+]([O-])/C(C(Cl)=C(Cl)Cl)=C(/Cl)SCc1ccccc1 | 2.89 µM (inactive) | – | 0.202 µM (active) | 1.74 µM (inactive) | 20.4 µM (inactive) | 15.2 µM (inactive) | 18.8 µM (inactive) | 2.3 µM (inactive) | 2.35 µM (inactive) | 0.393 µM (active) | 16.3 µM (inactive) | 16 µM (inactive) | 6.62 µM (inactive) | 21.2 µM (inactive) | 22.5 µM (inactive) | 8.04 µM (inactive) | 3.94 µM (inactive) | 3.66 µM (inactive) | 1.43 µM (inactive) | 14.6 µM (inactive) |
| COc1ccc(/N=N/c2c(-c3c(OC)cc4occc4c3OC)[nH]c(=O)c(C#N)c2C)cc1 | > 100 µM (inactive) | – | > 100 µM (inactive) | > 100 µM (inactive) | > 100 µM (inactive) | > 100 µM (inactive) | > 100 µM (inactive) | > 100 µM (inactive) | > 100 µM (inactive) | > 100 µM (inactive) | > 100 µM (inactive) | > 100 µM (inactive) | > 100 µM (inactive) | > 100 µM (inactive) | > 100 µM (inactive) | > 100 µM (inactive) | > 100 µM (inactive) | > 100 µM (inactive) | > 100 µM (inactive) | > 100 µM (inactive) |
| COc1ccc(C[C@H]2NC(=O)/C=C/C[C@@H]([C@H](C)[C@H]3O[C@@H]3c3ccccc3)OC(=O)[C@H](CC(C)C)OC(=O)[C@H](C)CNC2=O)cc1 | 5.93e-05 µM (active) | – | 1.75e-05 µM (active) | 1.99e-05 µM (active) | 3.77e-05 µM (active) | 2.47e-05 µM (active) | 3.93e-05 µM (active) | 4.49e-05 µM (active) | 3.37e-06 µM (active) | 2.85e-05 µM (active) | 3.13e-05 µM (active) | 2.09e-05 µM (active) | 1.94e-05 µM (active) | 2.06e-05 µM (active) | 2.47e-05 µM (active) | 2.86e-05 µM (active) | 6.71e-06 µM (active) | 1.58e-05 µM (active) | 3.36e-06 µM (active) | > 0.0001 µM (active) |
| C[C@]12CC[C@H](O)CC1=CC[C@@H]1[C@@H]2CC[C@]2(C)/C(=N/OCCN3CCCC3)CC[C@@H]12 | 25.5 µM (inactive) | 16.3 µM (inactive) | – | 16 µM (inactive) | 10.8 µM (inactive) | 21.3 µM (inactive) | 13.7 µM (inactive) | 19.9 µM (inactive) | 15.8 µM (inactive) | 14.1 µM (inactive) | 12 µM (inactive) | 17.8 µM (inactive) | 14.6 µM (inactive) | – | 23.4 µM (inactive) | 17.5 µM (inactive) | 15.5 µM (inactive) | 16.5 µM (inactive) | 14.8 µM (inactive) | – |
| CC(C)(C)OC(=O)NC(Cc1ccc(OCc2ccccc2)cc1)C(=O)NC(CCCCNC(=O)OCc1ccccc1)C(=O)NC(CCCCNC(=O)OCc1ccccc1)C(=O)ON1C(=O)CCC1=O (stereo not given) (Boc-Tyr(Bn)-Lys(Cbz)-Lys(Cbz)-OSu; configuration not given here) | 38.5 µM (inactive) | 17.9 µM (inactive) | 66.2 µM (inactive) | 31.1 µM (inactive) | > 100 µM (inactive) | > 100 µM (inactive) | 46.1 µM (inactive) | – | 33.1 µM (inactive) | > 100 µM (inactive) | 71.1 µM (inactive) | – | – | > 100 µM (inactive) | 16.6 µM (inactive) | 16.3 µM (inactive) | 15.7 µM (inactive) | – | > 100 µM (inactive) | 21 µM (inactive) |
